Results: patent US20010053777A1, “Drug treatment for restless leg syndrome” (priority 1999, published 2001)

Experiments:
[1] = test system: Restless Leg Syndrome (RLS) patients; details: cited from earlier work; for effectiveness in RLS: short-term therapy trials or trials cited in the background; for relief from the complaint: a few partly open trials or long-term therapy
patients with RLS = test: Treatment of 2 patients with RLS: therapeutic history, monotherapy trials and combination therapy; type: in vivo, human; details: for side effects: dose-limiting or intolerable
Method: 2 patients with RLS (person and person) were treated with a combination therapy of pramipexole and clonidine.
The clonidine was also initially prescribed in a single dose of 0.075 mg two hours before bedtime and increased by 0.075 mg at intervals of 3 days.
2. Treatment with a combination therapy of clonidine and pramipexole After slowly bringing the clonidine therapy to a complete halt and after a treatment-free period of about 1 week, both patients were treated with a combination of 0.088 mg of pramipexole and 0.075 mg of clonidine. […] After 7 days the dosage of pramipexole had been increased to 0.18 mg and the dosage of clonidine to 0.15 mg, two hours before going to nd sleep.

[2] = 2 RLS patients, previous therapy or monotherapy
[3] = 0.225 mg (male) / 0.45 mg (female) single dose before bedtime

CCN(CC)C(=O)N[C@H]1C=C2c3cccc4[nH]cc(c34)C[C@H]2N(C)C1 [lisuride]
effectiveness in RLS [1]: effective

NC(=O)N1c2ccccc2C=Cc2ccccc21 [Carbamazepine]
relief from the complaint [1]: only partial relief

CCCN(CCC)CCc1cccc2c1CC(=O)N2 [ropinirol]
effectiveness in RLS [1]: effective

N[C@@H](Cc1ccc(O)c(O)c1)C(=O)O [L-DOPA]
augmentation under therapy (patients with RLS; both RLS patients, previous therapy, disappeared on switch to a dopamine agonist): typical augmentation during the day
relief from the complaint [1]: significant alleviation of the complaint

CCCN[C@H]1CCc2nc(N)sc2C1 [pramipexole, (S)-2-amino-6-n-propylamino-4,5,6,7-tetrahydro-benzothiazole]
RLS symptoms (discomfort, cramps and pains in the legs, compulsive movement, sleep problems, daytime tiredness) (patients with RLS; [2]): certainly improved
difference from earlier therapy (patients with RLS; pramipexole 0.36 mg (male) / 0.27 mg (female) daily, two hours before bedtime): did not report any difference
effectiveness in RLS [1]: effective

CC(C)C[C@H]1C(=O)N2CCC[C@H]2[C@]2(O)O[C@](NC(=O)[C@@H]3C[C@@H]4c5cccc6[nH]cc(c56)C[C@H]4N(C)C3)(C(C)C)C(=O)N12 [alpha-dihydroergocryptine]
effectiveness in RLS [1]: effective

bromocryptine
effectiveness in RLS [1]: effective

CCCN1C[C@H](CSC)C[C@@H]2c3cccc4[nH]cc(c34)C[C@H]21 [pergolide]
side effects (patients with RLS; [2]): nausea, gastrointestinal problems and dizziness
effectiveness in RLS [1]: effective

Cc1nnc2n1-c1sc(Br)cc1C(c1ccccc1Cl)=NC2 [Brotizolam]
falling asleep and sleeping through (patients with RLS; 2 RLS patients, previous therapy): improved

Clc1cccc(Cl)c1NC1=NCCN1 [clonidine, 2-(2,6-dichloroanilino)-4,5-dihydroimidazole]
compulsive movements (patients with RLS; [3]): improved
paresthesia felt (patients with RLS; [3]): hardly any
quality of sleep and number of times they woke during the night (patients with RLS; [3]): not changed
side effects (patients with RLS; [2]): dry mouth, dizziness and constipation
perceived symptoms such as paresthesia, compulsive movement and tiredness during the day ([1]; daily doses 0.1-0.9 mg, 4 open trials, 2 double-blind placebo-controlled trials, a single case study): (statistically significant) reduction
sleep latency (polysomnographic) ([1]; daily doses 0.1-0.9 mg): shortened
quality of sleep, frequency of waking or periodic leg movements in sleep (PLMS) ([1]; daily doses 0.1-0.9 mg, polysomnographic): not affected

C=CCN1C[C@H](C(=O)N(CCCN(C)C)C(=O)NCC)C[C@@H]2c3cccc4[nH]cc(c34)C[C@H]21 [cabergoline]
effectiveness in RLS [1]: effective
